{"source": "patent US9079853B2", "about": "“Isatin compounds, compositions and methods for treatment of degenerative diseases and disorders” (MUSC FOUNDATION FOR RESEARCH DEVELOPMENT, priority 2013, dated 2015)", "system": "661W or C6 cells", "test": "MTT assay, protection against calcium-ionophore A23187", "assay_type": "cell-based", "details": "1 μM A23187, 24 h", "description": "The compound 3-(4,5-Dimethylthiazol-2-yl)-2,5-diphenyltetrazolium bromide (MTT) is a tetrazolium ion that is reduced to a blue formazan dye via several families of NAD(P)H-dependent oxidoreductases. Formation of the formazan dye from MTT or other related tetrazolium dyes are commonly used as a viability assay even though, in fact, the assay is a metabolic capacity assay.\nIn this assay, 661W or C6 cells were maintained in DMEM supplemented with 10% FBS. 100 μL of 70,000 cells/mL cells were seeded into each well of 96 well plates using DMEM supplemented with 5% FBS. Cells were then allowed to grow to confluency for 48 hours. The compounds of the invention were added in 2 μL media and calcium-ionophore A23187 was then added in 1 μL for a final concentration of 1 μM and after 24 h, 20 μL of […] MTT were added to each well and the cells were incubated for another 4 h after which 100 μL of 1% SDS in 0.01M aqueous HCl were added to each well and the plates were incubated overnight. Absorbance was measured at […] (background correction). The 1 μM ionophore A23187 caused about 50% loss in MTT signal at 24 h. Protection was calculated as the increase in absorbance of treatment groups normalized to the vehicle control.", "data": [{"smiles": "Cc1ccc2c(c1)C(O)(Cc1ncccc1Br)C(=O)N2CCC(C)C", "note": "(stereo not drawn) [Example 1, 3-((3-bromopyridin-2-yl)methyl)-3-hydroxy-1-isopentyl-5-methylindolin-2-one]", "values": [{"measurement": "MTT, % protection", "setting": "compound 1 μM", "value": "12%,"}]}, {"smiles": "CCCN1C(=O)C(O)(Cc2ccc(OC)cn2)c2cc(Cl)ccc21", "note": "(stereo not drawn) [Example 5, 5-chloro-3-hydroxy-3-((5-methoxypyridin-2-yl)methyl)-1-propylindolin-2-one]", "values": [{"measurement": "MTT, % protection", "setting": "compound 1 nM", "value": "39.2%,"}]}, {"smiles": "CCN1C(=O)C(O)(Cc2ncccc2OC)c2cc(Cl)ccc21", "note": "(stereo not drawn) [Example 7, 5-chloro-1-ethyl-3-hydroxy-3-((3-methoxypyridin-2-yl)methyl)indolin-2-one]", "values": [{"measurement": "MTT, % protection", "setting": "compound 1 μM", "value": "43.8%,"}]}, {"smiles": "CCN1C(=O)C(O)(Cc2ncccc2OC)c2cc(C)ccc21", "note": "(stereo not drawn) [Example 8, 1-ethyl-3-hydroxy-3-((3-methoxypyridin-2-yl)methyl)-5-methylindolin-2-one]", "values": [{"measurement": "MTT, % protection", "setting": "compound 1 nM", "value": "65.9%,"}]}, {"smiles": "Cc1ccc2c(c1)C(O)(Cc1ccccn1)C(=O)N2CCc1ccccc1", "note": "(stereo not drawn) [Example 9, 3-hydroxy-5-methyl-1-phenethyl-3-(pyridin-2-ylmethyl)indolin-2-one]", "values": [{"measurement": "MTT, % protection", "setting": "compound 800 pM", "value": "62.5%,"}]}, {"smiles": "CCN1C(=O)C(O)(Cc2ccccn2)c2cc(Cl)ccc21", "note": "(stereo not drawn) [Example 10, 5-chloro-1-ethyl-3-hydroxy-3-(pyridin-2-ylmethyl)indolin-2-one]", "values": [{"measurement": "MTT, % protection", "setting": "compound 1 nM", "value": "52.7%,"}]}, {"smiles": "COc1ccc(CC2(O)C(=O)N(CCc3ccccc3)c3ccc(C)cc32)nc1", "note": "(stereo not drawn) [Example 11, 3-hydroxy-3-((5-methoxypyridin-2-yl)methyl)-5-methyl-1-phenethylindolin-2-one]", "values": [{"measurement": "MTT, % protection", "setting": "compound 1 μM", "value": "35.7%,"}]}, {"smiles": "C#Cc1cccc(C(=O)CC2(O)C(=O)N(CCC)c3ccc(Cl)cc32)n1", "note": "(stereo not drawn) [Example 14, 5-chloro-3-(2-(6-ethynylpyridine-2-yl)-2-oxoethyl)-3-hydroxy-1-propylindolin-2-one]", "values": [{"measurement": "MTT, % protection", "setting": "compound 100 nM", "value": "69.6%,"}]}, {"smiles": "Cc1ccc2c(c1)C(O)(CC(=O)c1c[nH]c3ccccc13)C(=O)N2CCC(C)C", "note": "(stereo not drawn) [Example 15, 3-(2-(1H-indol-3-yl)-2-oxoethyl)-3-hydroxy-1-isopentyl-5-methylindolin-2-one]", "values": [{"measurement": "MTT, % protection", "setting": "compound 100 nM", "value": "108.5%,"}]}, {"smiles": "CC(C)CN1C(=O)C(O)(CC(=O)c2ccccn2)c2ccccc21", "note": "(stereo not drawn) [Example 16, 3-hydroxy-1-isobutyl-3-(2-oxo-2-(pyridin-2-yl)ethyl)indolin-2-one]", "values": [{"measurement": "MTT, % protection", "setting": "compound 100 nM", "value": "78.7%,"}]}, {"smiles": "COc1cccc(C(=O)CC2(O)C(=O)N(CC(C)C)c3ccc(Cl)cc32)n1", "note": "(stereo not drawn) [Example 17, 5-chloro-3-hydroxy-1-isobutyl-3-(2-(6-methoxypyridin-2-yl)-2-oxoethyl)indolin-2-one]", "values": [{"measurement": "MTT, % protection", "setting": "compound 100 nM", "value": "111%,"}]}, {"smiles": "COc1cccc(C(=O)CC2(O)C(=O)N(CCN3CCCCC3)c3ccc(Cl)cc32)n1", "note": "(stereo not drawn) [Example 18, 5-chloro-3-hydroxy-3-(2-(6-methoxypyridin-2-yl)-2-oxoethyl)-1-(2-(piperidin-1-yl)ethyl)indolin-2-one]", "values": [{"measurement": "MTT, % protection", "setting": "compound 100 nM", "value": "68.8%,"}]}, {"smiles": "CCN1C(=O)C(O)(CC(=O)c2ccccn2)c2cc(Cl)ccc21", "note": "(stereo not drawn) [Example 19, 5-chloro-1-ethyl-3-hydroxy-3-(2-oxo-2-(pyridin-2-yl)ethyl)indolin-2-one]", "values": [{"measurement": "MTT, % protection", "setting": "compound 100 nM", "value": "81.8%,"}]}, {"smiles": "CC(C)CN1C(=O)C(O)(CC(=O)c2c[nH]c3ccccc23)c2ccccc21", "note": "(stereo not drawn) [Example 20, 3-(2-(1H-indol-3-yl)-2-oxoethyl)-3-hydroxy-1-isobutylindolin-2-one]", "values": [{"measurement": "MTT, % protection", "setting": "compound 100 nM", "value": "59.5%,"}]}, {"smiles": "CC(C)CCN1C(=O)C(O)(CC(=O)c2c[nH]c3ccccc23)c2ccccc21", "note": "(stereo not drawn) [Example 21, 3-(2-(1H-indol-3-yl)-2-oxoethyl)-3-hydroxy-1-isopentylindolin-2-one]", "values": [{"measurement": "MTT, % protection", "setting": "compound 100 nM", "value": "82.9%,"}]}, {"smiles": "Cc1ccc2c(c1)C(O)(CC(=O)c1c[nH]c3ccccc13)C(=O)N2CCCN=[N+]=[N-]", "note": "(stereo not drawn) [Example 27, 3-(2-(1H-indol-3-yl)-2-oxoethyl)-1-(3-azidopropyl)-3-hydroxy-5-methylindolin-2-one]", "values": [{"measurement": "MTT, % protection", "setting": "compound 1 μM", "value": "66%,"}]}, {"smiles": "COc1cccc(C(=O)CC2(O)C(=O)N(CC(C)C)c3ccc(C)cc32)n1", "note": "(stereo not drawn) [Example 29, 3-hydroxy-1-isobutyl-3-(2-(6-methoxypyridin-2-yl)-2-oxoethyl)-5-methylindolin-2-one]", "values": [{"measurement": "MTT, % protection", "setting": "compound 100 nM", "value": "98.9%,"}]}, {"smiles": "CC(C)CN1C(=O)C(O)(CC(=O)c2ccccn2)c2cc(Cl)ccc21", "note": "(stereo not drawn) [Example 32, 5-chloro-3-hydroxy-1-isobutyl-3-(2-oxo-2-(pyridin-2-yl)ethyl)indolin-2-one]", "values": [{"measurement": "MTT, % protection", "setting": "compound 100 nM", "value": "102%,"}]}, {"smiles": "CCN1C(=O)C(Cc2cc(OC)c(OC)c(OC)c2)(OC(=O)c2ccccc2)c2cc(C)ccc21", "note": "(stereo not drawn) [Example 33, 1-ethyl-5-methyl-2-oxo-3-(3,4,5-trimethoxybenzyl)indolin-3-yl benzoate]", "values": [{"measurement": "MTT, % protection", "setting": "compound 100 nM", "value": "50%,"}]}, {"smiles": "COc1cc(CC2(OC(=O)c3ccccc3)C(=O)N(CC(C)C)c3ccc(C)cc32)cc(OC)c1OC", "note": "(stereo not drawn) [Example 36, 1-isobutyl-5-methyl-2-oxo-3-(3,4,5-trimethoxybenzyl)indolin-3-yl benzoate]", "values": [{"measurement": "MTT, % protection", "setting": "compound 100 nM", "value": "86.8%,"}]}, {"smiles": "COc1ccc(CC2(OC(=O)c3ccccc3)C(=O)N(CCc3ccccc3)c3ccc(C)cc32)cc1OC", "note": "(stereo not drawn) [Example 44, 3-(3,4-dimethoxybenzyl)-5-methyl-2-oxo-1-phenethylindolin-3-yl benzoate]", "values": [{"measurement": "MTT, % protection", "setting": "compound 1 nM", "value": "72%,"}]}, {"smiles": "COc1ccc(CC2(OC(=O)c3ccccc3)C(=O)N(CCC(C)C)c3ccccc32)cc1OC", "note": "(stereo not drawn) [Example 45, 3-(3,4-dimethoxybenzyl)-1-isopentyl-2-oxoindolin-3-yl benzoate]", "values": [{"measurement": "MTT, % protection", "setting": "compound 1 nM", "value": "63%,"}]}, {"smiles": "COc1ccc(CC2(OC(=O)c3ccccc3)C(=O)N(CCC(C)C)c3ccc(C)cc32)cc1OC", "note": "(stereo not drawn) [Example 46, 3-(3,4-dimethoxybenzyl)-1-isopentyl-5-methyl-2-oxoindolin-3-yl benzoate]", "values": [{"measurement": "MTT, % protection", "setting": "compound 1 μM", "value": "82%,"}]}, {"smiles": "CCCN1C(=O)C(Cc2ccc(OC)c(OC)c2)(OC(=O)c2ccccc2)c2cc(C)ccc21", "note": "(stereo not drawn) [Example 47, 3-(3,4-dimethoxybenzyl)-5-methyl-2-oxo-1-propylindolin-3-yl benzoate]", "values": [{"measurement": "MTT, % protection", "setting": "compound 1 nM", "value": "21.8%,"}]}, {"smiles": "COc1cc(CC2(OC(=O)c3ccccc3)C(=O)N(CC(C)C)c3ccccc32)cc(OC)c1OC", "note": "(stereo not drawn) [Example 49, 1-isobutyl-2-oxo-3-(3,4,5-trimethoxybenzyl)indolin-3-yl benzoate]", "values": [{"measurement": "MTT, % protection", "setting": "compound 800 pM", "value": "78.3%,"}]}, {"smiles": "CCCN1C(=O)C(Cc2ccc(OC)cc2O)(OC(=O)c2ccccc2)c2ccccc21", "note": "(stereo not drawn) [Example 52, 3-(2-hydroxy-4-methoxybenzyl)-2-oxo-1-propylindolin-3-yl benzoate]", "values": [{"measurement": "MTT, % protection", "setting": "compound 100 nM", "value": "24%,"}]}, {"smiles": "COc1ccc(O)c(CC2(OC(=O)c3ccccc3)C(=O)N(CC(C)C)c3ccccc32)c1", "note": "(stereo not drawn) [Example 54, 3-(2-hydroxy-5-methoxybenzyl)-1-isobutyl-2-oxoindolin-3-yl benzoate]", "values": [{"measurement": "MTT, % protection", "setting": "compound 800 pM", "value": "85.8%,"}]}, {"smiles": "COc1cccc(CC2(OC(=O)c3ccccc3)C(=O)N(CCC(C)C)c3ccc(Cl)cc32)c1O", "note": "(stereo not drawn) [Example 55, 5-chloro-3-(2-hydroxy-3-methoxybenzyl)-1-isopentyl-2-oxoindolin-3-yl benzoate]", "values": [{"measurement": "MTT, % protection", "setting": "compound 1 nM", "value": "67.4%,"}]}, {"smiles": "CCN1C(=O)C(Cc2ccc(OC)cc2O)(OC(=O)c2ccccc2)c2ccccc21", "note": "(stereo not drawn) [Example 57, 1-ethyl-3-(2-hydroxy-4-methoxybenzyl)-2-oxoindolin-3-yl benzoate]", "values": [{"measurement": "MTT, % protection", "setting": "compound 800 pM", "value": "71%,"}]}, {"smiles": "CCN1C(=O)C(Cc2cc(OC)ccc2O)(OC(=O)c2ccccc2)c2cc(C)ccc21", "note": "(stereo not drawn) [Example 60, 1-ethyl-3-(2-hydroxy-5-methoxybenzyl)-5-methyl-2-oxoindolin-3-yl benzoate]", "values": [{"measurement": "MTT, % protection", "setting": "compound 1 nM", "value": "68.7%,"}]}]}
